Data taken from ChEMBL document CHEMBL1125960, “Synthesis and biological activity of fluorinated intermediates of the methionine salvage pathway” (Bioorg Med Chem Lett, 1991).

Tests used:
Plasmodium falciparum [1] = assay: Growth inhibition of pyrimethamine-resistant Plasmodium falciparum; assay type: functional, organism-based
Plasmodium falciparum [2] = assay: Growth inhibition of chloroquine-resistant Plasmodium falciparum; assay type: functional, organism-based
Plasmodium falciparum [3] = assay: Growth inhibition of Plasmodium falciparum FCB125; assay type: functional, organism-based
AIK-T4 [4] = assay: (§1) The compound was evaluated for toxicity against HIV infected T4 lymphocytes; assay type: functional; settings: Homo sapiens
NCI-H522 = assay: The compound was evaluated for its ability to inhibit growth of non small cell lung cancer ([…] cell line); assay type: functional; settings: Homo sapiens
AIK-T4 [5] = assay: as §1; assay type: functional, cell-based; settings: Homo sapiens

For OC1OC(CSC(F)(F)F)C(O)C1O (centres undefined), the IC50 (Plasmodium falciparum [1]) was 50 µM, the IC50 (Plasmodium falciparum [2]) was greater than 100 µM and the IC50 (Plasmodium falciparum [3]) was greater than 100 µM.
NC1=NCN=C2C1N=CN2C1O[C@H](CSC(F)(F)F)[C@@H](O)[C@H]1O (some centres undefined) showed a GI50 (AIK-T4 [4]) of 0.117 µM and an IC50 (Plasmodium falciparum [3]) of 0.018 µM.
NC1=NCN=C2C1N=CN2C1O[C@H](CSCCF)[C@@H](O)[C@H]1O (some centres undefined) gave an IC50 (Plasmodium falciparum [3]) of 0.043 µM.
NC1=NCN=C2C1N=CN2C1O[C@H](CSC(F)F)[C@@H](O)[C@H]1O (some centres undefined) showed a GI50 (NCI-H522) of 86 µM, an IC50 (AIK-T4 [5]) of 222 µM and an IC50 (Plasmodium falciparum [3]) of 35 µM.
With NC1=NCN=C2C1N=CN2C1O[C@H](CSCC(F)(F)F)[C@@H](O)[C@H]1O (some centres undefined) the GI50 (NCI-H522) was 45 µM, the IC50 (AIK-T4 [5]) was 0.245 µM and the IC50 (Plasmodium falciparum [3]) was 0.085 µM.
NC1=NCN=C2C1N=CN2C1O[C@H](CSCC(F)F)[C@@H](O)[C@H]1O (some centres undefined) was tested, and the IC50 (Plasmodium falciparum [3]) was 0.025 µM.
OC1O[C@H](CSC(F)F)[C@@H](O)[C@H]1O (some centres undefined) gave an IC50 (Plasmodium falciparum [3]) greater than 100 µM.
